Reference: patent publication US20100285139A1, “PHARMACEUTICAL COMPOSITION FOR THE PROPHYLAXIS AND/OR SYMPTOMATIC TREATMENT OF CYSTIC FIBROSIS” (CYCNAD GMBH & CO., KG, priority 2007, published 2010)

System: ceramide
Assay: Pulmonary ceramide concentration in lung extracts of treated mice
Assay type: in vivo
Procedure: The inhalation was carried out with the aid of an inhaler (Pariboy® SX). The liquid reservoir in this inhaler was connected to an air nozzle, whereby it was possible to produce a fine aerosol which was inhaled through a mask by the mice. For this, the noses of the experimental animals were pressed manually into the opening of the mask for 10 minutes. This permitted excellent control of the inhalation process. All mice were subjected to an inhalation process 3 times at an interval of 12 hours.
After killing the experimental animals, the lungs were removed, homogenized under liquid nitrogen and added to a mixture of chloroform, methanol and 1N hydrochloric acid (100:100:1, v/v/v). After addition of 200 μl of H2O, the samples were centrifuged for 5 minutes (14,000 rpm, rotations per minute). The lower phase was then collected, dried and subjected to an alkaline hydrolysis of diacylglycerol in 0.1 N methanolic potassium hydroxide solution at 37° C. for 60 minutes. The samples were extracted again, and the lower phase was dried and subsequently resuspended in 20 μl of a detergent solution (7.5% (w/v) of n-octylglucopyranoside, 5 mM cardiolipin in 1 mM diethylenetriaminepentaacetic acid (DTPA)). After an ultrasound treatment (10 minutes), the samples were added to 70 μl of a reaction mixture which contained 10 μl of diacylglycerol kinase (GE Healthcare Europe, Munich, Germany), 0.1 M imidazole/HCl (pH 6.6), 0.2 mM diethylenetriaminepentaacetic acid (pH 6.6), 70 mM sodium chloride, 17 mM magnesium chloride, 1.4 mM EGTA, 2 mM DTT, 1 μM ATP and 10 μCi of [^32P]γATP. The kinase reaction was carried out for 30 minutes at room temperature and subsequently ended by addition of 1 ml of chloroform:methanol:1 N HCl (100:100:1, v/v/v), 170 μl of buffered saline solution (135 mM sodium chloride, 1.5 mM calcium chloride, 0.5 mM magnesium chloride, 5.6 mM glucose, 10 mM HEPES, pH 7.2) and 30 μl of a 100 mM EDTA solution. The samples were then vortexed and the resulting phases were separated. […] The incorporation of [^32P] in ceramide was quantified by means of liquid scintillation counting, since the spots […]. The amounts of ceramide were determined by comparison with a standard curve using C16-ceramide as substrate.
Wild-type mice and Cftr-deficient mice were inhaled with a solution of 4 mg/l of amitriptyline, 12.5 mg/l of trimipramine, 9 mg/l of desipramine, 8 mg/l of chlorprothixene, 4.5 mg/l of fluoxetine, 5 mg/l of amlodipine and 35 mg/l of sertraline. […] The lungs were removed from the experimental animals 60 minutes after the inhalation, and the pulmonary ceramide concentration in the lung extracts was determined. […]

## CN(C)CCC=C1c2ccccc2CCc2ccccc21 [amitriptyline]
Cftr-deficient mice, 12 h after inhalation of 1 ml amitriptyline solution (4 mg/l)
  ceramide concentration in lung extracts: 5.2±0.79 pmol/μg of protein
Cftr-deficient mice, parenterally treated, 12 h after intraperitoneal injection of 250 micrograms
  ceramide concentration in lung extracts: 4.9±0.7 pmol/μg of protein
wild-type mice, 12 h after inhalation of 1 ml amitriptyline solution (4 mg/l)
  ceramide concentration in lung extracts: 1.6±0.3 pmol/μg of protein
wild-type mice, parenterally treated, 12 h after intraperitoneal injection of 250 micrograms
  ceramide concentration in lung extracts: 1.5±0.4 pmol/μg of protein
